Key:
[1] = tested on: 34 nt hammerhead ribozyme RNA; test: Hammerhead ribozyme cleavage of Cy5-labeled substrate (urea PAGE); assay type: biochemical
Text: In this example, the ability of photocloaking to control the more complex function of a ribozyme RNA was examined. To form proper tertiary structure and initiate activity, RNA-cleaving ribozymes hybridize and bind metals (See Y Liu, T. J. Wilson, and D. M. J. Lilley Nat. Chem. Biol. 2017, 13, 508-13, the disclosure of which is herein incorporated by reference. Several examples of photocontrolled ribozymes have been reported previously (See S. G. Chaulk and A. M. MacMillan Nucleic Acids Res. 1998, 26, 3173-78; A. Nierth, M. Singer and A Jaschke Chem. Commun. (Camb). 2010, 46, 7975-77; D. D. Young and A. Dieters Bioorganic Med. Chem. Lett. 2006, 16, 2658-61; and S. G. Chaulk and A. M. MacMillan, 2007 cited supra; the disclosures of which are herein incorporated by reference), with the goal of studying ribozyme structure and folding. All prior studies, however, have been performed with modifications incorporated into RNAs during solid-phase synthesis. Thus, PCA 1 was tested whether it could be used to block a ribozyme in a single post-synthetic step, and subsequently phototrigger its activity. A 34 nt hammerhead ribozyme RNA (FIG. 18A; Seq. ID No. 5) was cloaked under standard conditions at room temperature and isolated from excess reagent and DMSO by precipitation. The cloaked ribozyme (200 nM) was then incubated with Cy5-labeled substrate (500 nM) in 50 mM Tris pH=6.0, 10 mM MgCl2 for 1 hour. The reaction was stopped by the addition of 8 M urea, 100 mM EDTA solution and then analyzed by urea PAGE (FIGS. 18B and 18C). […] The initial rates of substrate conversion were determined before and after cloaking (FIGS. 18D and 18E). […] After cloaking, the rate dropped 370-fold to 3.010^−3 min^−1, showing strong blocking of ribozyme function. […] Thus, ribozyme function can be robustly controlled by a direct photocloaking strategy.

[2] = tested on: 105 nt F30 Broccoli aptamer; test: Broccoli aptamer folding / DFHBI fluorescence emission in vitro; assay type: biochemical; conditions: RNA cloaked 4 h with 100 mM PCA in water, no light
Method: In this example, the ability of PCAs to control longer RNAs produced by transcription was tested. Photocontrolled aptamers have recently gained interest due to their potential for therapeutic and imaging applications, as exemplified by recent work by Langer and Kohane in which a 26nt nucleolin-binding aptamer for cancer targeting was reported (L. Li et al. Proc. Natl. Acad. Sci. 2014, 111, 17099-103, the disclosure of which is herein incorporated by reference; See also, M. C. Buff et al Nucleic Acids Res. 2009, 38, 2111-18; L. Qiu et al. J. Am. Chem. Soc. 2013, 135, 12952-55; A Heckel and G. Mayer J. Am. Chem. Soc. 2005, 12, 822-23; and A. Pinto et al. ACS Chem. Biol. 2012, 7, 360-66; the disclosure of which are herein incorporated by reference). […] Broccoli RNA folds into a compact tertiary structure, forming a binding site for the DFHBI dye, which results in a strong increase in fluorescence.
F-30 Broccoli DNA template (3 ng) (Table S1) was amplified by PCR (98° C. for 30 s; 30 times: 98° C. for 10 s, 61° C. for 30 s, 72° C. for 30 s; 72° C. for 5 min, 4° C. forever) using Phusion High-Fidelity PCR master Mix (NEB), and primers mix in 50 μL reaction, according to the NEB protocol. […] Fluorescent emission spectra were recorded on a Fluorolog 3-11 instrument (Jobin Yvon-SPEX), λex=450 nm at 25° C. […]

[3] = tested on: 12 nt DNA; test: Control incubation of analogous 12 nt DNA with PCA 1 (PAGE); conditions: analogous 12 nt DNA incubated with PCA 1
[4] = tested on: F30-2xd Broccoli aptamer RNA in HeLa cells; test: Epifluorescence microscopy of HeLa cells transfected with 237 nt Broccoli aptamer RNA; assay type: cell-based, human
Method: In this example, the capability to use this photocloaking strategy to switch on RNA function in cells was assessed by transfecting a cloaked Broccoli RNA construct into human cells and then exposing cells to light was explored. For these experiments, a larger 237 nt RNA (Seq. ID No. 7) construct encoding two dimeric Broccoli aptamers was prepared. This construct is known to be stable in the intracellular medium (G. S. Filonoy et al. Chem. Biol. 2015, 22 (5), 649-60, the disclosure of which is herein incorporated by reference). Accordingly, F30-2xdB_2 DNA (100 pmol; Seq. ID No. 8) was 5′ adenylated using Mth Ligase (100 pmol, NEB) according to NEB's protocol. Mini Elute columns, and PNI Buffer (Qiagen) were used to clean up double stranded DNA samples according to manufacturer's instructions. ssDNAs F30-2xdB_2 (40 pmol) and F30-2xdB_1 (20 pmol) were ligated according to NEB description, using Thermostable 5′ App DNA/RNA Ligase (40 pmol, NEB). Ligated DNA was purified on DNA Clean&Concentrator 5 columns (Zymo Research) using Zymo's protocol. F-30 2xd Broccoli ssDNA template (3 ng) was amplified by PCR (98° C. for 30 s; 30 times: 98° C. for 10 s, 60° C. for 30 s, 72° C. for 30 s; 72° C. for 5 min, 4° C. forever) using Phusion High-Fidelity PCR master Mix (NEB), and primers mix in 50 μL reaction, according to the NEB protocol. […]

[5] = tested on: complementary DNA strand; test: Thermal denaturation (melting curve) of RNA template 1 annealed to complementary DNA; assay type: physicochemical; conditions: duplex with complementary DNA, phosphate buffer pH=7.2, 100 mM NaCl, 300 nM
Method: Hybridization of untreated, cloaked, and uncloaked RNA was examined. Initial experiments measured the effect of photocloaking on thermal stability of a duplex. Untreated and cloaked RNA template 1 (Seq. ID No. 2) were annealed to its complementary DNA strand in phosphate buffer pH=7.2, 100 mM NaCl at 300 nM by heating the sample to 95° C. for 2 min and then cooling to room temperature. Melting curves were obtained by monitoring the absorbance at 260 nm of the nucleic acid solution while increasing the temperature at a rate of 1° C./min. Curves were smoothed by adjacent averaging.

[6] = tested on: complementary fluorogenic DNA (Q-STAR) probes; test: Nucleic acid-templated fluorogenic Q-STAR reaction (hybridization); assay type: biochemical
Method: To further test the effect of cloaking on hybridization, a nucleic acid-templated reaction was employed with complementary fluorogenic DNA (Q-STAR) probes (R. M. Franzini and E. T. Kool J. Am. Chem. Soc. 2009, 131, 16021-23; and W. A. Velema and E. T. Kool J. Am. Chem. Soc. 2017, 139, 5405-11; the disclosures of which are herein incorporated by reference). RNA template (untreated, cloaked or photo-uncloaked) was dissolved in 70 mM Tris-Borate buffer pH=7.0, 10 mM MgCl2 to a concentration of 200 nM. To this was added QSTAR probe (200 nM; Seq. ID No. 3) and TPP probe (400 nM; Seq. ID No. 4) and the fluorescence was monitored overtime at 25° C. on a Fluorolog 3-11 instrument (Jobin Yvon-SPEX). λex=497 nm and λem=519 nm. Plots were smoothed by adjacent averaging. […] After the cloaked RNA was exposed to light for up to an hour and subjected to the Q-STAR hybridization probes, a strong restoration of signal (82% of original) was observed (FIG. 17B), consistent with uncloaking at relatively high efficiency.

| Compound | drop of rate vs mock-treated ribozyme ([1]; after cloaking with PCA 1) | initial rate of substrate conversion ([1]; cloaked RNA exposed to light) | ribozyme function after uncloaking ([1]; cloaked with PCA 1, after 365 nm light exposure) | ribozyme activity (substrate cleavage) ([1]; ribozyme cloaked with PCA 1, 200 nM, substrate 500 nM, 1 hour) | Broccoli RNA fluorescence with DFHBI [2] | reaction with DNA [3] | fluorescence signal in cells ([4]; 237 nt RNA cloaked with PCA 2, HeLa cells, subsequent light exposure (30 minutes)) | fluorescence signal in cells ([4]; 237 nt RNA cloaked with PCA 2, transfected in HeLa cells, no light) | difference in melting temperature vs untreated RNA strand [5] | restoration of signal ([6]; cloaked RNA exposed to light for up to an hour) | fluorogenic templated reaction signal ([6]; cloaked RNA template 200 nM, no light, 25° C.) |
| --- | --- | --- | --- | --- | --- | --- | --- | --- | --- | --- | --- |
| COc1cc(COC(=O)n2ccnc2Cl)c([N+](=O)[O-])cc1OCCN(C)C [PCA 1, 4-(2-(dimethylamino)ethoxy)-5-methoxy-2-nitrobenzyl 2-chloro-1H-imidazole-1-carboxylate] | 370 fold | 1.1 min⁻¹ | almost completely restored | almost complete abrogation of activity | strong suppression of fluorescence | < 5% |  |  |  |  |  |
| COc1cc(C(C)OC(=O)n2ccnc2Cl)c([N+](=O)[O-])cc1OCCN(C)C (stereo not drawn) [PCA 2, 1-(4-(2-(dimethylamino)ethoxy)-5-methoxy-2-nitrophenyl)ethyl 2-chloro-1H-imidazole-1-carboxylate] |  |  |  |  | very dim fluorescence |  | emergence of a visible green fluorescence signal | no measurable signal above background |  |  |  |
| cloaked RNA template 1: RNA template 1 (Seq. ID No. 2, 5′ GCU CCC CAG CUU UCG C) acylated at 2′-OH with photocloaking groups (GCUCCCCAGCUUUCGC; RNA, backbone not given here; 2'-OH acylated with photocloaking groups, further chemistry not fully specified) |  |  |  |  |  |  |  |  | 10 °C | 82 % of original | 9 % of untreated RNA |

From patent US11572557B2, “Photoreversible acylation reagents” (The Board of Trustees of the Leland Stanford Junior …, priority 2018, dated 2023)
